In ChEMBL document CHEMBL1201862, “PubChem BioAssay data set” (2004):
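Growth conditions: 96-well plates. Treatment: test compound, 48 hours, 5 concentrations. Analysis: linear interpolation between bracketing concentrations; unreached endpoints set to highest concentration. Abbreviation: GI50, concentration required for 50% inhibition of growth.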 Calls of active or inactive are those of the source. Cut-off read from the data, not from the text of the source: active = GI50 up to about 1.1 µM and inactive = higher.

Experiments:
Test in all cases: NCI tumour cell line growth inhibition, 48 h
HOP-62 = system: HOP-62
EKVX = system: EKVX
SF-539 = system: SF-539
SNB-75 = system: SNB-75
SK-MEL-28 = system: SK-MEL-28
Malme-3M = system: Malme-3M
HCT-116 = system: HCT-116
UO-31 = system: UO-31
OVCAR-3 = system: OVCAR-3
HT-29 = system: HT-29
UACC-62 = system: UACC-62
NCI-H23 = system: NCI-H23
TK-10 = system: TK-10
SK-MEL-5 = system: SK-MEL-5
NCI-H226 = system: NCI-H226
MOLT-4 = system: MOLT-4
KM12 = system: KM12
OVCAR-5 = system: OVCAR-5
SK-OV-3 = system: SK-OV-3

Measured: GI50

Oc1cc(-c2ccc(Oc3ccccc3)cc2)nc2cc3c(cc12)OCO3
inactive: HOP-62 > 100 µM | EKVX > 100 µM | SF-539 > 100 µM | SNB-75 27.2 µM | SK-MEL-28 > 100 µM | Malme-3M > 100 µM | HCT-116 > 100 µM | UO-31 > 100 µM | OVCAR-3 > 100 µM | HT-29 > 100 µM | UACC-62 > 100 µM | NCI-H23 > 100 µM | TK-10 > 100 µM | SK-MEL-5 > 100 µM | NCI-H226 27.5 µM | MOLT-4 > 100 µM

CCOC(=O)C1=C(C(C)=O)CSC(c2ccccc2)=N1
inactive: EKVX > 100 µM | SF-539 > 100 µM | SNB-75 > 100 µM | SK-MEL-28 > 100 µM | Malme-3M > 100 µM | HCT-116 > 100 µM | UO-31 97.9 µM | OVCAR-3 > 100 µM | HT-29 > 100 µM | UACC-62 > 100 µM | NCI-H23 98.4 µM | KM12 > 100 µM | SK-MEL-5 > 100 µM | NCI-H226 > 89.7 µM | MOLT-4 > 100 µM | OVCAR-5 > 100 µM | SK-OV-3 > 100 µM

Cc1ccc(C)c(NC(=O)C(=O)CC(=O)C2CCOC2=O)c1 (centres undefined)
inactive: HOP-62 > 100 µM | EKVX > 100 µM | SF-539 > 100 µM | SNB-75 67.5 µM | SK-MEL-28 28.5 µM | Malme-3M > 100 µM | HCT-116 > 100 µM | UO-31 > 100 µM | OVCAR-3 > 100 µM | HT-29 > 100 µM | UACC-62 > 100 µM | NCI-H23 > 100 µM | KM12 > 100 µM | TK-10 > 100 µM | SK-MEL-5 > 100 µM | NCI-H226 > 100 µM | OVCAR-5 > 100 µM | SK-OV-3 > 100 µM

CCOC(=O)/C(=C/c1ccco1)P(=O)(OCC)OCC
inactive: EKVX > 100 µM | SF-539 > 100 µM | SNB-75 > 100 µM | SK-MEL-28 > 100 µM | Malme-3M > 100 µM | HCT-116 > 100 µM | UO-31 > 100 µM | HT-29 > 100 µM | UACC-62 > 100 µM | NCI-H23 > 100 µM | KM12 > 100 µM | TK-10 > 100 µM | SK-MEL-5 > 100 µM | NCI-H226 > 100 µM | MOLT-4 > 100 µM | OVCAR-5 > 100 µM | SK-OV-3 > 100 µM

CC(=O)c1ccc(NC(=O)/C(=N\NC(N)=O)C(C#N)CC(C)(C)C=O)cc1 (centres undefined)
inactive: HOP-62 > 100 µM | EKVX > 100 µM | SF-539 > 100 µM | SNB-75 > 100 µM | SK-MEL-28 > 100 µM | HCT-116 > 100 µM | UO-31 > 100 µM | HT-29 > 100 µM | UACC-62 > 100 µM | NCI-H23 > 100 µM | KM12 > 100 µM | TK-10 > 100 µM | SK-MEL-5 > 100 µM | NCI-H226 > 100 µM | MOLT-4 > 100 µM | OVCAR-5 > 100 µM | SK-OV-3 > 100 µM

COC(=O)C(C/C=C(\C)c1ccccc1)C(C)=O (centres undefined)
inactive: HOP-62 > 100 µM | EKVX > 100 µM | SF-539 > 100 µM | SNB-75 47.3 µM | SK-MEL-28 > 100 µM | Malme-3M > 100 µM | HCT-116 57.1 µM | UO-31 33.2 µM | OVCAR-3 50.6 µM | HT-29 83.9 µM | UACC-62 > 63.4 µM | NCI-H23 90.6 µM | KM12 58.2 µM | SK-MEL-5 59.6 µM | NCI-H226 > 72.6 µM | MOLT-4 16.4 µM | OVCAR-5 > 100 µM | SK-OV-3 > 100 µM

CCCCCCCCOCC(O)COC(=O)CCCCCCC (centres undefined)
inactive: HOP-62 > 100 µM | SK-MEL-28 > 100 µM | Malme-3M > 100 µM | HCT-116 > 100 µM | UO-31 > 100 µM | OVCAR-3 18.3 µM | HT-29 > 100 µM | UACC-62 50.8 µM | NCI-H23 53.6 µM | TK-10 > 100 µM | SK-MEL-5 > 100 µM | NCI-H226 > 100 µM | MOLT-4 32.7 µM | OVCAR-5 > 100 µM | SK-OV-3 > 100 µM

O=C1Sc2ccccc2C(=O)N2CCSC12 (centres undefined)
inactive: HOP-62 > 100 µM | SK-MEL-28 > 100 µM | Malme-3M > 100 µM | HCT-116 > 100 µM | UO-31 > 100 µM | OVCAR-3 > 100 µM | UACC-62 > 100 µM | NCI-H23 > 100 µM | KM12 > 100 µM | TK-10 > 100 µM | SK-MEL-5 > 100 µM | MOLT-4 > 100 µM | OVCAR-5 > 100 µM | SK-OV-3 > 100 µM

COC(=O)CC(=O)OSc1ccccc1
inactive: HOP-62 22.4 µM | EKVX 17.6 µM | SF-539 12.3 µM | Malme-3M 42.4 µM | HCT-116 12.9 µM | UO-31 12.2 µM | OVCAR-3 14.6 µM | UACC-62 14.9 µM | NCI-H23 24.7 µM | KM12 25.5 µM | TK-10 43 µM | SK-MEL-5 22.3 µM | NCI-H226 24.6 µM | MOLT-4 4.63 µM | OVCAR-5 45 µM | SK-OV-3 21.1 µM

O=C(c1ccccc1O)c1cc(-c2ncc3c(=O)c4ccccc4oc3n2)c(-c2ccccc2O)[nH]c1=O
inactive: HOP-62 18.5 µM | EKVX 36.5 µM | SF-539 1.47 µM | SNB-75 19.2 µM | SK-MEL-28 23.6 µM | Malme-3M 30 µM | HCT-116 20.7 µM | UO-31 14.9 µM | OVCAR-3 24 µM | HT-29 28.2 µM | UACC-62 22.9 µM | NCI-H23 19.7 µM | KM12 30 µM | SK-MEL-5 12 µM | NCI-H226 15 µM | MOLT-4 18.1 µM | OVCAR-5 24 µM | SK-OV-3 25.9 µM

NCc1ccccc1C1CSCSC1
inactive: SF-539 > 100 µM | SNB-75 > 100 µM | SK-MEL-28 > 100 µM | Malme-3M > 100 µM | HCT-116 > 100 µM | UO-31 > 100 µM | OVCAR-3 > 100 µM | HT-29 > 100 µM | UACC-62 > 100 µM | NCI-H23 > 100 µM | KM12 > 100 µM | TK-10 > 100 µM | SK-MEL-5 > 100 µM | NCI-H226 > 100 µM | MOLT-4 > 100 µM | SK-OV-3 > 100 µM

O=C(c1ccco1)c1ccccc1C(=O)c1ccco1
inactive: HOP-62 > 100 µM | EKVX > 100 µM | SF-539 > 100 µM | SNB-75 > 100 µM | SK-MEL-28 > 100 µM | Malme-3M > 100 µM | HCT-116 > 100 µM | UO-31 > 100 µM | OVCAR-3 > 100 µM | HT-29 > 100 µM | UACC-62 > 100 µM | NCI-H23 > 100 µM | KM12 > 100 µM | TK-10 > 100 µM | SK-MEL-5 > 100 µM | NCI-H226 > 100 µM | MOLT-4 > 100 µM | OVCAR-5 > 100 µM

COC(=O)[C@]1(c2ccc(N(C)C)cc2OC)C[C@@H]2CCCN(CCc3c1[nH]c1ccccc31)C2
inactive: HOP-62 30.3 µM | EKVX 22.3 µM | SF-539 20.5 µM | SNB-75 12.4 µM | SK-MEL-28 19.6 µM | Malme-3M 15.9 µM | HCT-116 29.9 µM | UO-31 15.5 µM | OVCAR-3 18.5 µM | HT-29 15 µM | UACC-62 18 µM | NCI-H23 18.9 µM | KM12 23.1 µM | SK-MEL-5 17.2 µM | NCI-H226 17.4 µM | MOLT-4 31 µM | OVCAR-5 > 60.4 µM | SK-OV-3 > 47 µM

Cc1nc(O)nc2c1C(NCCCN(C)C)c1cc(Cl)ccc1N2 (centres undefined)
inactive: HOP-62 14.6 µM | EKVX 16.3 µM | SF-539 13.5 µM | SNB-75 12.8 µM | SK-MEL-28 14 µM | Malme-3M 16.7 µM | HCT-116 15 µM | UO-31 13.6 µM | OVCAR-3 17.4 µM | HT-29 10.4 µM | UACC-62 13.4 µM | NCI-H23 17.5 µM | KM12 16 µM | TK-10 16.8 µM | NCI-H226 16.6 µM | MOLT-4 19.8 µM | SK-OV-3 16.9 µM

COc1cccc(-c2nc3c(C(=O)NCCN(C)C)cccc3[nH]2)c1
inactive: HOP-62 15.1 µM | EKVX 34.4 µM | SF-539 17.1 µM | SNB-75 21.3 µM | SK-MEL-28 15.8 µM | Malme-3M 14 µM | HCT-116 7.73 µM | UO-31 11.2 µM | OVCAR-3 22.7 µM | HT-29 11 µM | UACC-62 16.7 µM | NCI-H23 19.2 µM | KM12 20.8 µM | SK-MEL-5 16.7 µM | NCI-H226 14 µM | MOLT-4 3.38 µM | OVCAR-5 19.1 µM | SK-OV-3 21.3 µM

O=C1c2ccccc2C2(O)NC(=S)N(c3ccccc3)C12O (centres undefined)
inactive: EKVX > 100 µM | SF-539 > 100 µM | SNB-75 > 100 µM | SK-MEL-28 > 100 µM | Malme-3M > 100 µM | HCT-116 > 100 µM | UO-31 > 100 µM | OVCAR-3 > 100 µM | HT-29 > 100 µM | UACC-62 > 100 µM | NCI-H23 > 100 µM | KM12 > 100 µM | TK-10 > 100 µM | MOLT-4 > 100 µM | OVCAR-5 > 100 µM | SK-OV-3 > 100 µM
